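Where inhibition never reached the appropriate level, the endpoint shown equals the highest concentration tested. Otherwise, values were interpolated linearly from a five-concentration, 48-hour dose response in 96-well plates. The concentration for 50% growth inhibition is given as GI50.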 Active and inactive are the calls of the source. Cut-off read from the data, not from the text of the source: active = GI50 up to about 1.1 µM and inactive = higher.
Key:
Experiment in all cases: DTP human tumour cell line panel, 48 h
MCF7 = system: MCF7
SF-268 = system: SF-268
786-0 = system: 786-0
SF-295 = system: SF-295
T47D = system: T47D
A498 = system: A498
SF-539 = system: SF-539
LOX IMVI = system: LOX IMVI
SNB-75 = system: SNB-75
U-251 = system: U-251
IGROV-1 = system: IGROV-1
HCC 2998 = system: HCC 2998
CCRF-CEM = system: CCRF-CEM
PC-3 = system: PC-3
SN12C = system: SN12C
KM12 = system: KM12
M14 = system: M14
SK-MEL-2 = system: SK-MEL-2
HT-29 = system: HT-29
OVCAR-3 = system: OVCAR-3

Row | SMILES | GI50 (MCF7) | GI50 (SF-268) | GI50 (786-0) | GI50 (SF-295) | GI50 (T47D) | GI50 (A498) | GI50 (SF-539) | GI50 (LOX IMVI) | GI50 (SNB-75) | GI50 (U-251) | GI50 (IGROV-1) | GI50 (HCC 2998) | GI50 (CCRF-CEM) | GI50 (PC-3) | GI50 (SN12C) | GI50 (KM12) | GI50 (M14) | GI50 (SK-MEL-2) | GI50 (HT-29) | GI50 (OVCAR-3)
1 | COc1cc(/C=c2/c3ccccc3n3c2cc(-c2ccccc2)[n+]3C)cc(OC)c1OC | 4.54 µM (inactive) | 6.73 µM (inactive) | 4.06 µM (inactive) | 5.64 µM (inactive) | 4.06 µM (inactive) | 16 µM (inactive) | 2.86 µM (inactive) | 3.69 µM (inactive) | 4.01 µM (inactive) | 3.7 µM (inactive) | 6.19 µM (inactive) | 6.22 µM (inactive) | 3.52 µM (inactive) | 3.74 µM (inactive) | 2.82 µM (inactive) | 1.91 µM (inactive) | 4.95 µM (inactive) | 2.58 µM (inactive) | 3.07 µM (inactive) | 2.43 µM (inactive)
2 | O=c1cc(-c2cccnc2)[nH]c2cc3c(cc12)OCO3 | 5.92 µM (inactive) | 12.9 µM (inactive) | 33.3 µM (inactive) | 11.1 µM (inactive) | > 100 µM (inactive) | 10.7 µM (inactive) | 5.58 µM (inactive) | 4.67 µM (inactive) | 3.29 µM (inactive) | 4.16 µM (inactive) | 4.47 µM (inactive) | 7.4 µM (inactive) | 6.65 µM (inactive) | 11 µM (inactive) | 12.2 µM (inactive) | 3.77 µM (inactive) | 4.59 µM (inactive) | 8.04 µM (inactive) | 6.59 µM (inactive) | 2.81 µM (inactive)
3 | CN(C)Cc1cc(/N=N/c2ccc(Cl)cc2)cc(CN(C)C)c1O | 7.87 µM (inactive) | 10.8 µM (inactive) | 5.53 µM (inactive) | 11.8 µM (inactive) | 10.5 µM (inactive) | 14.7 µM (inactive) | 10 µM (inactive) | 3.1 µM (inactive) | 10.9 µM (inactive) | 7.24 µM (inactive) | 3.38 µM (inactive) | 10.5 µM (inactive) | 2.1 µM (inactive) | 5.41 µM (inactive) | 11.4 µM (inactive) | 6.55 µM (inactive) | 14.5 µM (inactive) | 12.9 µM (inactive) | 6.62 µM (inactive) | 1.84 µM (inactive)
4 | COC(=O)C(CBr)CBr | 4.46 µM (inactive) | 15.1 µM (inactive) | 4.52 µM (inactive) | 16.2 µM (inactive) | 2.5 µM (inactive) | 16.8 µM (inactive) | 5.96 µM (inactive) | 2.6 µM (inactive) | 16.3 µM (inactive) | 5.56 µM (inactive) | 10.4 µM (inactive) | 4.49 µM (inactive) | 0.762 µM (active) | 10.2 µM (inactive) | 3.9 µM (inactive) | 8.04 µM (inactive) | 2.15 µM (inactive) | 10.8 µM (inactive) | 4.1 µM (inactive) | 2.65 µM (inactive)
5 | COc1ccc(/C=C2/N/C(=N\N=C/C(O)C(O)C(O)C(O)CO)NC2=O)cc1 (stereo not given) | 40.1 µM (inactive) | > 100 µM (inactive) | > 100 µM (inactive) | > 100 µM (inactive) | 62.1 µM (inactive) | > 100 µM (inactive) | > 100 µM (inactive) | > 100 µM (inactive) | > 100 µM (inactive) | > 100 µM (inactive) | > 100 µM (inactive) | > 100 µM (inactive) | 53.8 µM (inactive) | > 100 µM (inactive) | > 100 µM (inactive) | > 100 µM (inactive) | > 100 µM (inactive) | > 100 µM (inactive) | > 100 µM (inactive) | > 100 µM (inactive)
6 | CC(=O)C1(O)CCC2(O)C3(O)CC=C4CC(O)CCC4(C)C3CC(OC(=O)c3ccc(O)cc3)C12C (stereo not given) | > 100 µM (inactive) | > 100 µM (inactive) | > 100 µM (inactive) | > 100 µM (inactive) | > 100 µM (inactive) | > 100 µM (inactive) | > 100 µM (inactive) | > 100 µM (inactive) | > 100 µM (inactive) | > 100 µM (inactive) | > 100 µM (inactive) | > 100 µM (inactive) | > 100 µM (inactive) | > 100 µM (inactive) | > 100 µM (inactive) | > 100 µM (inactive) | > 100 µM (inactive) | > 100 µM (inactive) | > 100 µM (inactive) | > 100 µM (inactive)
7 | CCCCCCCCCCCC(=O)OC[C@@H](C[As](=O)(O)O)OC(=O)CCCCCCCCCCC | 2.8 µM (inactive) | 5.15 µM (inactive) | 13.4 µM (inactive) | 13.2 µM (inactive) | 12.6 µM (inactive) | 11.9 µM (inactive) | 12.6 µM (inactive) | 4.24 µM (inactive) | 3.82 µM (inactive) | 2.14 µM (inactive) | 1.85 µM (inactive) | 7.57 µM (inactive) | 16.2 µM (inactive) | 2.43 µM (inactive) | 7 µM (inactive) | 5.02 µM (inactive) | 2.49 µM (inactive) | 2.69 µM (inactive) | 9.82 µM (inactive) | 4.19 µM (inactive)
8 | COC(=O)C1CCCCCCCCCCC12SCCCS2 (stereo not given) | 43.9 µM (inactive) | 23 µM (inactive) | 14.6 µM (inactive) | 16.5 µM (inactive) | 35.7 µM (inactive) | 29.5 µM (inactive) | 25.3 µM (inactive) | 18.3 µM (inactive) | 19.1 µM (inactive) | 17.3 µM (inactive) | 17.7 µM (inactive) | 20.9 µM (inactive) | 23 µM (inactive) | 17.5 µM (inactive) | 16.9 µM (inactive) | 18.1 µM (inactive) | 15.5 µM (inactive) | 18.6 µM (inactive) | 32.8 µM (inactive) | 18.4 µM (inactive)
9 | C=C1C(=O)OC2CC3(CO3)C3C(O)C(O)CC3(C)CC12 (stereo not given) | 21 µM (inactive) | 40.3 µM (inactive) | 76.9 µM (inactive) | > 100 µM (inactive) | 30.9 µM (inactive) | 28.4 µM (inactive) | 19.1 µM (inactive) | 8.24 µM (inactive) | 49.8 µM (inactive) | 43 µM (inactive) | 35.6 µM (inactive) | 17.3 µM (inactive) | 15.2 µM (inactive) | 45.8 µM (inactive) | 24.4 µM (inactive) | 32.9 µM (inactive) | 16.4 µM (inactive) | 16 µM (inactive) | 30.5 µM (inactive) | 21.9 µM (inactive)
10 | O=[N+]([O-])/C(Cl)=C(\NCCO)C(Cl)=C(Cl)Cl | 52 µM (inactive) | 87.9 µM (inactive) | 45 µM (inactive) | > 100 µM (inactive) | 57.7 µM (inactive) | > 100 µM (inactive) | > 100 µM (inactive) | 70 µM (inactive) | > 80.2 µM (inactive) | > 93.3 µM (inactive) | > 100 µM (inactive) | > 100 µM (inactive) | 16.9 µM (inactive) | 87.3 µM (inactive) | 43 µM (inactive) | > 89.1 µM (inactive) | 38.8 µM (inactive) | > 100 µM (inactive) | 57 µM (inactive) | 60.4 µM (inactive)

Source: ChEMBL document CHEMBL1201862, “PubChem BioAssay data set” (2004)
